According to patent US9067922B2, “Chemical compounds” (Pfizer Limited, priority 2013, dated 2015):

target: URAT-1 transporter (Homo sapiens (Human), UniProt Q96S37); assay: URAT-1 inhibitor activity: [14C]-uric acid uptake in CHO-URAT1(L)GFP#8 (CHO#8) cells, scintillation proximity; type: cell-based; conditions: inhibition of [14C]-uric acid (30 nM) uptake into CHO#8 cells; compound 0 to 10 μM; 4 parameter logistic fit
Source text: The nucleotide sequence for the long isoform of URAT1 (NM_144585) was C-terminally fused to that of enhanced green fluorescent protein (eGFP) (hereinafter referred to as URAT1(L)GFP). The combined sequence was codon-optimised and custom synthesized. The synthesized sequence was generated in pDONR221 Gateway entry vector (Invitrogen Life Technologies) prior to cloning in pLenti6.3/V5 Gateway destination vector (Invitrogen Life Technologies).
Lentiviral particles were generated according to ViraPower HiPerform expression system procedure (Invitrogen Life Technologies) and used to transduce CHO cells. […] The clonal pools were sorted using fluorescence-activated cell sorting (FACS) on the basis of GFP expression with the gating set at the top 50% of expression into single cells which were subsequently expanded to generate clonal lines. […] This cell line was used for all screening activities and is referred to as CHO-URAT1(L)GFP#8 or CHO#8.
The potency of the compounds of formula (I) as inhibitors of the URAT-1 transporter was determined as follows.
CHO#8 cells were cultured in cell line maintenance flasks in medium consisting of Dulbecco's modified Eagle medium (DMEM) with high glucose and sodium pyruvate (4.5 g of glucose per liter, Invitrogen Life Technologies), supplemented with heat-inactivated foetal bovine serum (FBC, 10% v/v), 1×NEAA (non-essential amino acids) and blasticidin (10 μg/ml). Cultures were grown in 175 cm^2 tissue culture flasks in a humidified incubator at approximately 37° C. in approximately 95% air/5% CO2. Near confluent CHO#8 cell cultures were harvested by trypsinisation, re-suspended in culture medium and the process was repeated once or twice weekly to provide sufficient cells for use.
Assay ready flasks were generated by the same method, except the cells were not cultured in blasticidin.
Assay ready frozen cells were generated by freezing 40,000,000 cells in 1 ml of FBS (without blasticidin) containing 10% DMSO per vial. One vial was sufficient for 5 assay plates. Each vial was thawed rapidly to 37° C., washed and re-suspended in pre-warmed culture medium for seeding onto assay plates.
CHO#8 cells were seeded onto Cytostar™ 96-well plates at a density of […]. The cells were cultured for 1 day at approximately 37° C. in a humidified incubator containing approximately 5% CO2 in air. After approximately 24 hours culture, cells were used for uptake experiments.
On the day of assay, culture medium was removed from the wells and the cells were washed once with 50 μL of chloride-containing buffer (136.7 mM NaCl, 5.36 mM KCl, 0.952 mM CaCl2, 0.441 mM KH2PO4, 0.812 mM MgSO4, 5.6 mM D-glucose, 0.383 mM Na2HPO4.2H2O, 10 mM HEPES, pH 7.4 with NaOH). The cells were pre-incubated with another 50 μL of chloride-containing buffer for one hour at approximately 37° C. in a humidified incubator containing approximately 5% CO2 in air.
Assay compound plates were prepared by diluting the compounds of formula (I) with chloride-free buffer (125 mM Na-gluconate, 4.8 mM K-gluconate, 1.3 mM Ca-gluconate, 1.2 mM KH2PO4, 1.2 mM MgSO4, 5.6 mM D-glucose, 25 mM HEPES, pH 7.4 with NaOH) in 100% DMSO to a final concentration of 1% DMSO. [^14C]-Uric Uric acid working stock was made by addition of radiolabeled compound to a final concentration of 120 nM in chloride-free buffer. In all wells, the final assay concentration of solvent (DMSO) was 0.25%; the final assay concentration of [^14C]-uric acid was 30 nM in chloride-free buffer and the final compound of formula (I) concentrations ranged from 0 to 10 μM.
After pre-incubation, cells were washed with 50 μL of chloride-free buffer and another 50 μL of chloride-free buffer was added.

| Molecule | IC50 |
| --- | --- |
| 4-{4-chloro-2-[D3-methyloxy]phenoxy}-3-cyano-N-(pyridazin-3-yl)benzenesulfonamide [Example 82] | 409 nM |
| CCc1cccc(Oc2ccc(S(=O)(=O)Nc3ccc(F)cn3)cc2C#N)c1 [Example 2, 3-cyano-4-(3-ethylphenoxy)-N-(5-fluoropyridin-2-yl)benzenesulfonamide] | > 10000 nM |
| N#Cc1cc(S(=O)(=O)Nc2ccc(F)cn2)ccc1Oc1cccc(Cl)c1Cl [Example 3, 3-cyano-4-(2,3-dichlorophenoxy)-N-(5-fluoropyridin-2-yl)benzenesulfonamide] | 141 nM |
| N#Cc1cc(S(=O)(=O)Nc2ccc(F)cn2)ccc1Oc1cc(C(F)(F)F)ccc1F [Example 4, 3-cyano-N-(5-fluoropyridin-2-yl)-4-[2-fluoro-5-(trifluoromethyl)phenoxy]benzenesulfonamide] | > 10000 nM |
| N#Cc1cc(S(=O)(=O)Nc2ccc(F)cn2)ccc1Oc1ccc(F)cc1F [Example 7, 3-cyano-4-(2,4-difluorophenoxy)-N-(5-fluoropyridin-2-yl)benzenesulfonamide] | 64 nM |
| COc1cc(F)cc(Oc2ccc(S(=O)(=O)Nc3ccc(F)cn3)cc2C#N)c1 [Example 8, 3-cyano-4-(3-fluoro-5-methoxyphenoxy)-N-(5-fluoropyridin-2-yl)benzenesulfonamide] | 119 nM |
| N#Cc1ccc(Oc2ccc(S(=O)(=O)Nc3ccc(F)cn3)cc2C#N)cc1 [Example 10, 3-cyano-4-(4-cyanophenoxy)-N-(5-fluoropyridin-2-yl)benzenesulfonamide] | 74 nM |
| N#Cc1cc(S(=O)(=O)Nc2ccc(F)cn2)ccc1Oc1cc(F)cc(F)c1 [Example 11, 3-cyano-4-(3,5-difluorophenoxy)-N-(5-fluoropyridin-2-yl)benzenesulfonamide] | 125 nM |
| N#Cc1cccc(Oc2ccc(S(=O)(=O)Nc3ccc(F)cn3)cc2C#N)c1 [Example 14, 3-cyano-4-(3-cyanophenoxy)-N-(5-fluoropyridin-2-yl)benzenesulfonamide] | 206 nM |
| N#Cc1cc(S(=O)(=O)Nc2ccc(F)cn2)ccc1Oc1cccc(F)c1F [Example 16, 3-cyano-4-(2,3-difluorophenoxy)-N-(5-fluoropyridin-2-yl)benzenesulfonamide] | 218 nM |
| N#Cc1cc(S(=O)(=O)Nc2ccc(F)cn2)ccc1Oc1ccc(Cl)cc1 [Example 20, 4-(4-chlorophenoxy)-3-cyano-N-(5-fluoropyridin-2-yl)benzenesulfonamide] | 88 nM |
| Cc1ccc(F)cc1Oc1ccc(S(=O)(=O)Nc2ccc(F)cn2)cc1C#N [Example 21, 3-cyano-4-(5-fluoro-2-methylphenoxy)-N-(5-fluoropyridin-2-yl)benzenesulfonamide] | 84 nM |
| Cc1ccc(Oc2ccc(S(=O)(=O)Nc3ccc(F)cn3)cc2C#N)cc1Cl [Example 22, 4-(3-chloro-4-methylphenoxy)-3-cyano-N-(5-fluoropyridin-2-yl)benzenesulfonamide] | 209 nM |
| N#Cc1cc(S(=O)(=O)Nc2ccc(F)cn2)ccc1Oc1cccc(C(F)(F)F)c1 [Example 23, 3-cyano-N-(5-fluoropyridin-2-yl)-4-[3-(trifluoromethyl)phenoxy]benzenesulfonamide] | > 10000 nM |
| N#Cc1cc(S(=O)(=O)Nc2ccc(F)cn2)ccc1Oc1cccc(Cl)c1F [Example 24, 4-(3-chloro-2-fluorophenoxy)-3-cyano-N-(5-fluoropyridin-2-yl)benzenesulfonamide] | 135 nM |
| Cc1cc(Cl)c(Oc2ccc(S(=O)(=O)Nc3ccc(F)cn3)cc2C#N)cc1C#N [Example 26, 4-(2-chloro-5-cyano-4-methylphenoxy)-3-cyano-N-(5-fluoropyridin-2-yl)benzenesulfonamide] | 57 nM |
| N#Cc1cc(S(=O)(=O)Nc2ccc(F)cn2)ccc1Oc1ccccc1OC(F)(F)F [Example 27, 3-cyano-N-(5-fluoropyridin-2-yl)-4-[2-(trifluoromethoxy)phenoxy]benzenesulfonamide] | 274 nM |
| N#Cc1cc(S(=O)(=O)Nc2ccc(F)cn2)ccc1Oc1cc(F)cc(Cl)c1 [Example 28, 4-(3-chloro-5-fluorophenoxy)-3-cyano-N-(5-fluoropyridin-2-yl)benzenesulfonamide] | 92 nM |
| N#Cc1cc(S(=O)(=O)Nc2ccc(F)cn2)ccc1Oc1cccc(C(F)(F)F)c1F [Example 29, 3-cyano-N-(5-fluoropyridin-2-yl)-4-[2-fluoro-3-(trifluoromethyl)phenoxy]benzenesulfonamide] | > 10000 nM |
| N#Cc1ccc(Oc2ccc(S(=O)(=O)Nc3ccc(F)cn3)cc2C#N)c(Cl)c1 [Example 30, 4-(2-chloro-4-cyanophenoxy)-3-cyano-N-(5-fluoropyridin-2-yl)benzenesulfonamide] | 183 nM |
| N#Cc1cc(S(=O)(=O)Nc2ccc(F)cn2)ccc1Oc1ccc(F)cc1Cl [Example 31, 4-(2-chloro-4-fluorophenoxy)-3-cyano-N-(5-fluoropyridin-2-yl)benzenesulfonamide] | 78 nM |
| N#Cc1cc(S(=O)(=O)Nc2ccc(F)cn2)ccc1Oc1ccc(OC(F)(F)F)cc1 [Example 35, 3-cyano-N-(5-fluoropyridin-2-yl)-4-[4-(trifluoromethoxy)phenoxy]benzenesulfonamide] | > 10000 nM |

Results, then the molecule that gave them:

| IC50 | Molecule |
| --- | --- |
| 13 nM | N#Cc1ccc(Oc2ccc(S(=O)(=O)Nc3ccc(F)cn3)cc2C#N)cc1Cl [Example 1, 4-(3-chloro-4-cyanophenoxy)-3-cyano-N-(5-fluoropyridin-2-yl)benzenesulfonamide] |
| 148 nM | Cc1cc(Cl)ccc1Oc1ccc(S(=O)(=O)Nc2ccc(F)cn2)cc1C#N [Example 5, 4-(4-chloro-2-methylphenoxy)-3-cyano-N-(5-fluoropyridin-2-yl)benzenesulfonamide] |
| 267 nM | N#Cc1cc(S(=O)(=O)Nc2ccc(F)cn2)ccc1Oc1ccc(C#N)c(C(F)(F)F)c1 [Example 6, 3-cyano-4-[4-cyano-3-(trifluoromethyl)phenoxy]-N-(5-fluoropyridin-2-yl)benzenesulfonamide] |
| 208 nM | N#Cc1cc(S(=O)(=O)Nc2ccc(F)cn2)ccc1Oc1ccccc1Cl [Example 9, 4-(2-chlorophenoxy)-3-cyano-N-(5-fluoropyridin-2-yl)benzenesulfonamide] |
| 135 nM | Cc1cc(Cl)cc(Oc2ccc(S(=O)(=O)Nc3ccc(F)cn3)cc2C#N)c1 [Example 15, 4-(3-chloro-5-methylphenoxy)-3-cyano-N-(5-fluoropyridin-2-yl)benzenesulfonamide] |
| > 10000 nM | N#Cc1cc(S(=O)(=O)Nc2ccc(F)cn2)ccc1Oc1cccc(OC(F)(F)F)c1 [Example 18, 3-cyano-N-(5-fluoropyridin-2-yl)-4-[3-(trifluoromethoxy)phenoxy]benzenesulfonamide] |
| 57 nM | N#Cc1cc(Oc2ccc(S(=O)(=O)Nc3ccc(F)cn3)cc2C#N)ccc1F [Example 19, 3-cyano-4-(3-cyano-4-fluorophenoxy)-N-(5-fluoropyridin-2-yl)benzenesulfonamide] |
| 86 nM | N#Cc1cc(S(=O)(=O)Nc2ccc(F)cn2)ccc1Oc1cccc(Cl)c1 [Example 25, 4-(3-chlorophenoxy)-3-cyano-N-(5-fluoropyridin-2-yl)benzenesulfonamide] |
| 212 nM | N#Cc1cc(S(=O)(=O)Nc2ccc(F)cn2)ccc1Oc1cc(F)cc(F)c1Cl [Example 32, 4-(2-chloro-3,5-difluorophenoxy)-3-cyano-N-(5-fluoropyridin-2-yl)benzenesulfonamide] |
| 80 nM | Cc1cc(Oc2ccc(S(=O)(=O)Nc3ccc(F)cn3)cc2C#N)ccc1Cl [Example 34, 4-(4-chloro-3-methylphenoxy)-3-cyano-N-(5-fluoropyridin-2-yl)benzenesulfonamide] |
